Molecular target: human CB1 receptor (Homo sapiens, UniProt P21554)
Assay: Human CB1 receptor binding, [3H] CP-55,940 displacement on HEK cell membranes
Parameters: expressed in transfected cells; host or cells: HEK cells, doxycycline-induced; membrane preparation
Conditions: CB1 Ki
Protocol: The Human CB1 receptor binding affinity and other biological activities of the compounds of this invention are determined by the following procedures. Membrane preparation: Human Embryonic Kidney (HEK) Cells expressing the human CB1 receptor under transcriptional regulation of a tetracycline inducible promoter were grown in Dulbecco's Modified Essential Medium with sodium pyruvate (Invitrogen, Carlsbad, Calif.) containing 10% tetracycline free fetal bovine serum (Clonetech, Mountain View, Calif.) 100 μg/ml hygromycin (Calbiochem, San Diego, Calif.), 5 μg/ml blasticidin (Invitrogen). CB1 receptor expression was induced by addition of 1 μg/ml doxycycline (Calbiochem) and incubation for an additional 24 hours. Cells were released from flasks using Cell Dissociation Buffer (Invitrogen). Cells were pelleted by centrifugation at 500×G for 5 minutes. Membranes were prepared by resuspending cells in ice cold TEE Buffer (25 mM Tris pH 7.4, 5 mM EDTA, 5 mM EGTA, Complete Protease Inhibitor (Roche, Basel, Switzerland)). Cells were lysed with 12 strokes of a dounce homogenizer. Unlysed cells were pelleted by centrifugation at 500×G for 5 minutes. Membranes were pelleted by centrifugation at 25,000×G for 30 minutes. Membranes were resuspended in TEE, dounced 12 strokes, and pelleted a second time at 25,000×G for 30 minutes. Membrane pellet was resuspended in 50 mM Tris pH 7.4, 100 mM NaCl, 3 mM MgCl2, 0.2 mM EGTA, Complete Protease Inhibitor (Roche). Protein concentration was determined using the Micro-BCA Protein Assay Kit (Pierce, Rockford, Ill.) using BSA as a standard. Membranes were quick frozen and stored at −80 degrees Celsius until use.
Binding experiments: 50 μl of test compound was incubated with 50 μl of [^3H] CP-55,940 (Perkin Elmer, Boston, Mass.) (final concentration=[…]) and 150 μl of membrane homogenate (1 μg/well) in polypropylene 96-well plates (Corning, Acton, Mass.). Final reaction conditions were 50 mM Tris pH 7.4, 100 mM NaCl, 3 mM MgCl2, 0.2 mM EGTA, 0.04% BSA. Nonspecific binding was determined by incubation with 50 μM WIN-55, 212-2 (Tocris, Ellisville, Mo.). After incubation at room temperature for 60 minutes reactions were harvested by vacuum filtration through Unifilter GF/B-96 filters (Perkin Elmer) that had been presoaked in assay buffer containing 0.5% BSA (Sigma, St. Louis, Mo.) using a FilterMate Plate Harvester (Perkin Elmer). Filters were rinsed 4 times with 50 mM Tris pH 7.4, 0.025% Tween-20 and dried at 50 degrees Celsius for at least 30 minutes. 40 μl of Microscint-20 (Perkin Elmer) was added per well, and plates were counted using a Top-Count Microplate Scintillation Counter (Perkin Elmer). Binding data were analyzed and EC50 and K, values calculated using Graph Pad Prism 4.0 Software.

Sequence of human CB1 receptor (P21554 whole entry): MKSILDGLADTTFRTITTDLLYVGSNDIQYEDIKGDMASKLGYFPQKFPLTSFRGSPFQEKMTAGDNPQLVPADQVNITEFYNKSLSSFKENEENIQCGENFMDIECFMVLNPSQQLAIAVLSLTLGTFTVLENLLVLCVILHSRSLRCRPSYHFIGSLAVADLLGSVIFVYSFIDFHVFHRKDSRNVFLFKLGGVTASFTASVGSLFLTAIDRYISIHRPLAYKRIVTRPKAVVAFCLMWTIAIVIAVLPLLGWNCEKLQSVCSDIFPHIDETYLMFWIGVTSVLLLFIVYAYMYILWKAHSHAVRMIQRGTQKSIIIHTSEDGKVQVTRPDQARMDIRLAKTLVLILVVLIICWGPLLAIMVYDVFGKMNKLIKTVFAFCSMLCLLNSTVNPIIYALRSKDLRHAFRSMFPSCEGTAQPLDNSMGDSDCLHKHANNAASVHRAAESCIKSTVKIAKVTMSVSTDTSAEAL

SMILES	Ki [nM]
NC(=O)[C@H](Cc1ccccc1)NC(=O)c1nn(Cc2ccc(F)cc2)c2ccccc12 [Example 4, N-α-{[1-(4-fluorobenzyl)-1H-indazol-3-yl]carbonyl}-L-phenylalaninamide]	708
Cc1cc(Cn2nc(C(=O)N[C@H](C(N)=O)C(C)(C)C)c3ccccc32)no1 [Example 5, N-[(1S)-1-(aminocarbonyl)-2,2-dimethylpropyl]-1-[(5-methylisoxazol-3-yl)methyl]-1H-indazole-3-carboxamide]	954
CC(C)(C)[C@H](NC(=O)c1nn(Cc2ccc(F)cc2)c2ccccc12)C(=O)NCC(=O)O [Example 9, N-{[1-(4-fluorobenzyl)-1H-indazol-3-yl]carbonyl}-3-methyl-L-valylglycine]	84.2
CC(C)(C)[C@H](NC(=O)c1nn(Cc2ccc(C#N)cc2)c2ccccc12)C(=O)NCc1nn[nH]n1 [Example 217]	> 400
CC(C)(C)[C@H](NC(=O)c1nn(Cc2ccc(C#N)cc2)c2c(F)cccc12)C(=O)NCCS(C)(=O)=O [Example 221]	87.5
CC(C)(C)[C@H](NC(=O)c1nn(Cc2ccc(C#N)cc2)c2c(F)cccc12)C(=O)NCCS(N)(=O)=O [Example 222]	21.4
CC(C)(C)[C@H](NC(=O)c1nn(Cc2ccc(F)cc2)c2ccccc12)C(=O)N[C@H](CO)C(=O)O [Example 235]	222
COC(=O)[C@@H](O)CNC(=O)[C@@H](NC(=O)c1nn(Cc2ccc(C#N)cc2)c2ccccc12)C(C)(C)C [Example 237]	> 400
CC(C)(C)[C@H](NC(=O)c1nn(Cc2ccc(F)cc2)c2ccccc12)C(=O)N[C@@H](CO)C(=O)O [Example 240]	152
CC(C)(C)[C@H](NC(=O)c1nn(Cc2ccc(F)cc2)c2ccccc12)C(=O)N[C@@H]1CCCC[C@H]1O [Example 248]	108
CC(C)(C)[C@H](NC(=O)c1nn(Cc2ccc(F)cc2)c2ccccc12)C(=O)N[C@H]1CCCC[C@@H]1O [Example 252]	205
CC(C)(C)[C@H](NC(=O)c1nn(Cc2ccc(C(F)(F)F)cc2)c2ccccc12)C(=O)NC[C@H](O)CO [Example 256]	98.6
CC(C)(C)[C@H](NC(=O)c1nn(Cc2ccc(C(F)(F)F)cc2)c2ccccc12)C(=O)NCCS(N)(=O)=O [Example 257]	224
CC(C)(C)[C@H](NC(=O)c1nn(Cc2ccc(C(F)(F)F)cc2)c2ccccc12)C(=O)NCCS(C)(=O)=O [Example 258]	> 400
CC(C)(C)[C@H](NC(=O)c1nn(Cc2ccc(C(F)(F)F)cc2)c2ccccc12)C(=O)NCC(N)=O [Example 259]	132
CC(C)(C)[C@H](NC(=O)c1nn(Cc2ccc(C(F)(F)F)cc2)c2ccccc12)C(=O)NC[C@@H](O)CO [Example 260]	> 400

Same assay, conditions: read-out: CB1 Ki

SMILES	Ki [nM]
CC(C)(C)C(NC(=O)c1nn(Cc2ccccc2C(N)=O)c2ccccc12)C(N)=O (stereo not drawn) [Example 34]	154
COc1cccc(C2(NC(=O)[C@@H](NC(=O)c3nn(Cc4ccc(C#N)cc4)c4c(F)cccc34)C(C)(C)C)CC2)c1 [Example 212]	52.1
CC(C)(C)[C@H](NC(=O)c1nn(Cc2ccc(C#N)cc2)c2c(F)cccc12)C(=O)N[C@H](CO)c1ccccc1 [Example 216]	225
CC(C)(C)[C@H](NC(=O)c1nn(Cc2ccc(F)cc2)c2ccccc12)C(=O)N1C[C@@H]2C[C@H]1CN2C(N)=O [Example 219]	> 400
CC(C)(C)[C@H](NC(=O)c1nn(Cc2ccc(F)cc2)c2ccccc12)C(=O)N1C[C@@H]2C[C@H]1CN2C(=O)CCC(N)=O [Example 227]	> 400
CC(C)(C)[C@H](NC(=O)c1nn(Cc2ccc(F)cc2)c2ccccc12)C(=O)N1CCC(O)(CNC(=O)C2CC2)CC1 [Example 229]	31.3
CC(C)(C)[C@H](NC(=O)c1nn(Cc2ccc(F)cc2)c2ccccc12)C(=O)N1C[C@@H]2C[C@H]1CN2CC(O)CO (stereo partly drawn) [Example 232]	54.2
CC(C)(C)[C@H](NC(=O)c1nn(Cc2ccc(F)cc2)c2ccccc12)C(=O)N[C@@H](CC(N)=O)C(N)=O [Example 239]	46.8

— patent US20110028447A1, “INDAZOLE DERIVATIVES” (Pfizer Inc., priority 2008, published 2011)
